Experimental data reported in patent US7271239B2, “D-isomers of antimicrobial peptide” (The Research Foundation of State University of New York, priority 2004, dated 2007).
Read-outs that look alike come from different tables or passages of the source.

How the values were obtained:
HOK-16B cells = assay: MTS cell viability assay; assay type: cell-based, human
Protocol: FIG. 6. Effect of peptides on viability of (A) HOK-16B cells and (B) KB cells. The toxic effect of the compounds on the cells was determined by calorimetric assay using a CellTiter 96 AQueous One Solution cell proliferation assay (MTS) kit, as described in the text. Briefly, the cells were grown to about 80% confluence, harvested, washed, resuspended in KGM, and dispensed into a 96-well microtiter plate. They were then exposed to different concentrations of peptides or amphotericin B at 37° C. and 5% CO2 for 1.5 h. MTS agent was then added to each well, and the cells were further incubated for 4 h. Absorbance at 490 nm was then measured using a microplate reader. MTS reduction is an indication of cell viability. The viability is expressed as relative absorbance (percentage of no-agent control). Data represent the average and standard deviation of results from two independent experiments.
Cell culture. The HOK-16B cell line (originated from primary normal human keratinocytes) was kindly provided by No-Hee Park, UCLA School of Dentistry. The KB cell line was obtained from the American Type Culture Collection (CLL-17). […]
MTS cell viability assay. The toxic effect of the compounds on the cells was determined by calorimetric assay using a CellTiter 96 AQueous One Solution cell proliferation assay (MTS) kit (Promega, Wis.). […] Absorbance at 490 nm was then measured using a microplate reader. […]

C. albicans strain DIS = assay type: in vivo, mice ICR strain; details: for Log10 cfu/ml (Mean + S.D.), Initial infection: before treatment (baseline)
Protocol: A previously described protocol was adopted (14). Mice were immunosuppressed with two subcutaneous injections of prednisolone at a dose of 100 mg/kg body weight 1 day prior to and 3 days after the infection with C. albicans. Tetracycline hydrochloride in drinking water at a concentration of 0.83 mg/ml was given to mice beginning 1 day before infection. Mice were anesthetized by intramuscular injection with 60 μl of 2 mg/ml chlorpromazine chloride, using a dose of 10 mg/kg body weight of mice. While under anesthesia, a small cotton ball soaked in 0.1 ml aliquot of C. albicans cell suspension (2.5×10^6 cells) was used to swab the entire oral cavity of the anesthetized mice.
Visual evaluation was done by carefully extending the tongue of randomly picked mice using blunt-end forceps, while the mice were under isoflurane sedation. Presence of thick, white curd-like patches indicated candidal infection. At day 3 post-infection, all animals were examined for evidence oral candidal infection by microbiological evaluation. The entire oral cavity of anesthetized mice was swabbed using a sterile calcium alginate disposable swab (Fisher Scientific), dampened with sterile PBS. Cells were then released from the swab into 1 ml PBS. Serial 10-fold dilutions were plated on SDA plates supplemented with streptomycin (30 μg/ml). Plates were incubated for 24 h at 37° C. and yeast cell count expressed as log10 of cfu/ml.
Tongues from sacrificed animals were used for histological studies. They were fixed in 10% formalin and embedded in paraffin. Serial five-μm sections were cut from the paraffin block and stained with periodic acid-Schiff (PAS) reagent for detection of C. albicans.
Mice were randomly divided into various treatment groups with 8 mice per group. Antifungal agents were employed on an equimolar basis, and included amphotericin B (1.75%), clotrimazole (0.66%), MUC7 12-mer (RKSYKCLHKRCR—SEQ ID NO:1) (L; 3%), MUC7 12-mer (D; 3%), MUC7 12-mer (D; 3%) containing Na2EDTA (1 mM), MUC7 12-mer (L; 3%) containing protease inhibitor cocktail (PIC) (1%), and Hsn5 12-mer (AKRHHGYKRKFH—SEQ ID NO:2) (3%). They were all emulsified in Pluronic F127, (20% lipoil), a polymer of polyoxyethylene and polyoxypropylene (non-ionic surfactant). Animals were anesthetized using isoflurane; while sedated, about 30 to 40 μl of the antifungal emulsion was applied on the tongue and spread throughout oral cavity. The treated mice were under sedation for additional 5 min under isoflurane. Animals were not given access to food and water for 1 h following the application.
Fungal burden was re-evaluated quantitatively after 3 and 6 days of treatment, using the same technique as the one used for initial evaluation. Randomly picked mice from each group was subjected to histopathological evaluation, after 6 days of treatment. Blood from randomly sacrificed mice from each treatment group was analyzed for any changes in the serum liver (AST, ALT, ALP etc.) and kidney enzymes (BUN, glucose, creatinine etc) levels.
Statistical analysis was performed using a significance level set at 0.05 (α) and a significant group size (n=8). Initial infection and antifungal treatment efficacy were determined using analysis of variance (ANOVA), expressed as log10 cfu, and Scheffe's multiple comparison test was used to determine the differences between various treatment groups.

[1] = Experimental study I, topical oral application

C[C@@H]1[C@H](O)[C@@H](C)/C=C/C=C/C=C/C=C/C=C/C=C/C=C/[C@H](O[C@@H]2O[C@H](C)[C@@H](O)[C@H](N)[C@@H]2O)C[C@@H]2O[C@](O)(C[C@@H](O)C[C@@H](O)[C@H](O)CC[C@@H](O)C[C@@H](O)CC(=O)O[C@H]1C)C[C@H](O)[C@H]2C(=O)O [Amphotericin B]
IC50 (HOK-16B cells): 100 µM | Log10 cfu/ml (Mean + S.D.), Initial infection (C. albicans strain DIS; Experimental study I, day 3 post-infection): 4.52 ± 0.15 Log10 cfu/ml | Log10 cfu/ml (Mean + S.D.), 3-days treatment (C. albicans strain DIS; [1]): 1.79 ± 1.16 Log10 cfu/ml | Log10 cfu/ml (Mean + S.D.), 6-days treatment (C. albicans strain DIS; [1]): 0.75 ± 1.04 Log10 cfu/ml | Log10 cfu/ml (Mean + S.D.), 3-days treatment (C. albicans strain DIS; Experimental study II): 1.23 ± 1.44 Log10 cfu/ml | Log10 cfu/ml (Mean + S.D.), Initial infection (C. albicans strain DIS; Experimental study II): 4.26 ± 0.54 Log10 cfu/ml | histopathological finding in tongue sections (C. albicans, PAS staining) (C. albicans strain DIS; end of treatment): healthy tissue and absence of visible microorganisms
